From ChEMBL document CHEMBL1201862, “PubChem BioAssay data set” (2004)
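96-well plates; 48 h exposure; 5 concentrations. Endpoints by linear interpolation between flanking doses. Not reached: highest tested concentration assigned. At the GI50, growth is halved.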 Active and inactive are the calls of the source. Rule as the data show it: active = GI50 up to about 1.1 µM and inactive = higher.

Legend:
Test in all cases: NCI tumour cell line growth inhibition, 48 h
DMS-114 = system: DMS-114
HOP-18 = system: HOP-18
KM-20L2 = system: KM-20L2
LXFL 529 = system: LXFL 529
M19-MEL = system: M19-MEL
SNB-78 = system: SNB-78
XF498 = system: XF498
DLD-1 = system: DLD-1

Measured: GI50

C[Si](C)(C)/C(Br)=C\CCN1C(=O)CCC1O (stereo not given)
inactive: DMS-114 > 100 µM | HOP-18 > 100 µM | KM-20L2 > 100 µM | LXFL 529 > 100 µM | M19-MEL > 100 µM | SNB-78 > 100 µM | XF498 > 100 µM

CCCCCCCC(=O)OCC(C[As](=O)(O)O)OC(=O)CCCCCCC (stereo not given)
inactive: DLD-1 16.9 µM | DMS-114 16.4 µM | HOP-18 15.8 µM | KM-20L2 16.7 µM | LXFL 529 13.4 µM | M19-MEL 15.7 µM | SNB-78 18.7 µM

COc1cc(/C=C(\C#N)c2ccccc2)cc(OC)c1
inactive: DLD-1 76.9 µM | DMS-114 27.5 µM | KM-20L2 41.1 µM | LXFL 529 43.4 µM | M19-MEL 50 µM | SNB-78 82.4 µM | XF498 48 µM

O=C(Nc1ccccc1Cl)c1ccc([N+](=O)[O-])cc1
inactive: DLD-1 > 100 µM | KM-20L2 > 100 µM | M19-MEL > 100 µM | SNB-78 39.7 µM | XF498 > 100 µM

CCc1cc2c(O)c(c1)Cc1cc(CC)cc(c1O)Cc1cc(CC)cc(c1O)Cc1cc(CC)cc(c1O)Cc1cc(CC)cc(c1O)Cc1cc(CC)cc(c1O)Cc1cc(CC)cc(c1O)C2
inactive: DLD-1 > 100 µM | DMS-114 > 100 µM | KM-20L2 > 100 µM | LXFL 529 > 100 µM | M19-MEL > 100 µM | SNB-78 55 µM | XF498 48.2 µM

Brc1cc2c(cc1Br)CN(c1ccccc1)C2
inactive: DLD-1 68.2 µM | DMS-114 > 100 µM | KM-20L2 > 100 µM | LXFL 529 > 100 µM | M19-MEL > 100 µM | SNB-78 > 100 µM | XF498 > 100 µM

CCc1nc2c([nH]1)C(=O)c1ccccc1C2=O
inactive: DLD-1 39.1 µM | DMS-114 21.2 µM | M19-MEL 15.3 µM | SNB-78 53.7 µM | XF498 15.9 µM

COc1ccc(-c2oc3cc(O)c(OC)c(O)c3c(=O)c2OC2OC(CO)C(O)C(O)C2O)cc1 (stereo not given)
inactive: DLD-1 > 100 µM | DMS-114 > 100 µM | HOP-18 50.4 µM | KM-20L2 > 100 µM | LXFL 529 > 100 µM | M19-MEL > 100 µM | SNB-78 > 100 µM

CN/N=C(/Cc1occc(=O)c1O)C(=O)Nc1ccc(C)c(C)c1
inactive: DMS-114 > 100 µM | KM-20L2 > 100 µM | LXFL 529 > 100 µM | M19-MEL > 100 µM | SNB-78 60.1 µM

C/C(CC(=O)Nc1ccc(NC(=O)/C(C)=N/NS(=O)(=O)c2ccc(C)cc2)cc1)=N\NS(=O)(=O)c1ccc(C)cc1
inactive: DLD-1 > 100 µM | DMS-114 > 100 µM | KM-20L2 > 100 µM | LXFL 529 > 100 µM | M19-MEL > 100 µM | SNB-78 > 100 µM

Nc1c2ccccc2nc2nccnc12
inactive: DLD-1 > 100 µM | DMS-114 > 100 µM | HOP-18 > 100 µM | KM-20L2 > 100 µM | M19-MEL > 100 µM | SNB-78 > 100 µM | XF498 > 100 µM
